Assay results taken from patent publication US11045561B2, “Rotaxane-type probe for molecular imaging” (Rhode Island Council on Postsecondary Education, priority 2017, dated 2021).

Key:
[1] = cited from earlier work; for affinity for xenon as observed by 129Xe NMR: aqueous media, room temperature for cyclodextrins
[2] = HyperCEST detection by hyperpolarized 129Xe NMR (fritted phantom, 3T clinical scanner); details: 10 mM in water; saturation pulse at about +128 ppm; 3T scanner
Protocol: FIGS. 7A and 7B show HyperCEST data for rotaxane-type biosensors: (FIG. 7A) cucurbiturils and pillararene-based; (FIG. 7B) cycodextrin-based. [Note: ^a Samples were dissolved in water (2 mL, 10 mM), and 1D ^129Xe spectrum were initially recorded and then a series of HyperCEST spectra were sequentially recorded using a series of off resonance pulses varying by 5 ppm. ^b Performed in H2O/DMSO. ^c Performed in CHCl3.]
For the HP-Xe studies, we used a custom-built fritted phantom inside of a custom dual tuned ^1H/^129Xe radiofrequency (RF) coil to acquire all free induction decay (FID) spectra (FIG. 6). Rotaxane-type biosensor molecules, dissolved in water and/or DMSO, were placed inside the fritted phantom, and HP ^129Xe was introduced below the fritted phantom that created microbubbles that rose vertically through the sample. A series of saturation pre-pulses at a variety of chemical shift offsets were loaded into the user interface software of the […] Achieva 3T MR scanner. Spectra with different saturation pre-pulses were acquired approximately every six seconds. […]
Nuclear Magnetic Resonance (NMR) HyperCEST Detection. […] The RF pulse length was determined with the use of the Ref B1, a parameter of Philips MR scanners. […] In this study, the B1 field strength was determined by the scanner to be 15.9 μT. […]

## O=C1N2CN3C(=O)N4CN5C(=O)N6CN7C(=O)N8CN9C(=O)N%10CN%11C(=O)N%12CN%13C(=O)N%14CN%15C(=O)N%16CN1C1C2N2CN%17C(=O)N(CN%18C(=O)N(CN%19C(=O)N(CN%20C(=O)N(CN%21C(=O)N(CN%22C(=O)N(CN%23C(=O)N(CN1C2=O)C%16C%15%23)C%14C%13%22)C%12C%11%21)C%10C9%20)C8C7%19)C6C5%18)C4C3%17 (stereo not shown) [CB[8], cucurbit[8]uril]
[1]
  affinity for xenon as observed by 129Xe NMR: do not show any affinity for xenon

## cucurbit[7]uril [CB[7]]
[1]
  affinity for xenon as observed by 129Xe NMR: do not show any affinity for xenon

## COc1cc2c3cc1OCCOc1cc4c(cc1OC)Cc1cc5c(OC)cc1Cc1cc(c(OC)cc1C4)OCCOc1cc(c(cc1OC)C3)Cc1cc(OC)c(cc1C2)OCCO5 [Cryptophane-A]
[1]; room temperature
  xenon residence time: 0.5 to 8 ms

## OC[C@H]1O[C@@H]2O[C@H]3[C@H](O)[C@@H](O)[C@@H](O[C@H]4[C@H](O)[C@@H](O)[C@@H](O[C@H]5[C@H](O)[C@@H](O)[C@@H](O[C@H]6[C@H](O)[C@@H](O)[C@@H](O[C@H]7[C@H](O)[C@@H](O)[C@@H](O[C@H]8[C@H](O)[C@@H](O)[C@@H](O[C@H]1[C@H](O)[C@H]2O)O[C@@H]8CO)O[C@@H]7CO)O[C@@H]6CO)O[C@@H]5CO)O[C@@H]4CO)O[C@@H]3CO [β-CD, β-cyclodextrin]
[1]
  affinity for xenon as observed by 129Xe NMR: either fail to bind xenon in aqueous media, or the reversible binding has too fast of an exchange rate to be detectable

## OC[C@H]1O[C@@H]2O[C@H]3[C@H](O)[C@@H](O)[C@@H](O[C@H]4[C@H](O)[C@@H](O)[C@@H](O[C@H]5[C@H](O)[C@@H](O)[C@@H](O[C@H]6[C@H](O)[C@@H](O)[C@@H](O[C@H]7[C@H](O)[C@@H](O)[C@@H](O[C@H]1[C@H](O)[C@H]2O)O[C@@H]7CO)O[C@@H]6CO)O[C@@H]5CO)O[C@@H]4CO)O[C@@H]3CO [α-CD, α-cyclodextrin]
[1]
  affinity for xenon as observed by 129Xe NMR: either fail to bind xenon in aqueous media, or the reversible binding has too fast of an exchange rate to be detectable

## O=C1N2CN3C(=O)N4CN5C(=O)N6CN7C(=O)N8CN9C(=O)N%10CN%11C(=O)N%12CN1C1C2N2CN%13C(=O)N(CN%14C(=O)N(CN%15C(=O)N(CN%16C(=O)N(CN%17C(=O)N(CN1C2=O)C%12C%11%17)C%10C9%16)C8C7%15)C6C5%14)C4C3%13 (stereo not shown) [CB6, cucurbit[6]uril]
[2]
  HyperCEST depletion (maximum): 67%

## OC[C@H]1O[C@@H]2O[C@H]3[C@H](O)[C@@H](O)[C@@H](O[C@H]4[C@H](O)[C@@H](O)[C@@H](O[C@H]5[C@H](O)[C@@H](O)[C@@H](O[C@H]6[C@H](O)[C@@H](O)[C@@H](O[C@H]7[C@H](O)[C@@H](O)[C@@H](O[C@H]8[C@H](O)[C@@H](O)[C@@H](O[C@H]9[C@H](O)[C@@H](O)[C@@H](O[C@H]1[C@H](O)[C@H]2O)O[C@@H]9CO)O[C@@H]8CO)O[C@@H]7CO)O[C@@H]6CO)O[C@@H]5CO)O[C@@H]4CO)O[C@@H]3CO [γ-CD, γ-cyclodextrin]
[1]
  affinity for xenon as observed by 129Xe NMR: either fail to bind xenon in aqueous media, or the reversible binding has too fast of an exchange rate to be detectable
